Values of other authors, collected in article PMC7898221 (Drug Design, Development and Therapy, 2021).

Row | SMILES | Fraction metabolized by CYP3A4 into LC15-0636 (CYP3A4) | Time to maximum plasma concentration (Tmax) (after dosing) [h] | Terminal t1/2 [h] | Tmax (after dosing) [h]
1 | N[C@@H](CC(=O)N1CCc2c(nc(C(F)(F)F)nc2C(F)(F)F)C1)CN1CC(F)(F)CCC1=O [Gemigliptin] | ~ 10% | 0.5 to 3.0 |  | 
2 | CC(C)c1nc(N(C)S(C)(=O)=O)nc(-c2ccc(F)cc2)c1/C=C/[C@@H](O)C[C@@H](O)CC(=O)O [Rosuvastatin] |  |  | 12.3 ± 5.8 | 1.0 to 5.0
